Data as given in paper PMC12475274, “Harnessing indole scaffolds to identify small-molecule IRE1α inhibitors modulating XBP1 mRNA splicing” (Nature Communications, 2025).
Where “and” joins values, the source holds several entries; their conditions need not be identical. Equal entries are not always repeated. Where two headings read alike, the source gives them in different places.

How the values were obtained:
[1] = biological target: T1, dephosphorylated IRE1α (547–977) (Homo sapiens, UniProt O75460); experiment: FRET-based IRE1α RNase activity assay, dephosphorylated IRE1α; assay type: biochemical; settings: for IC50: FRET assay
T1 construct: Human IRE1α kinase and RNase domain (residues 547–977) was subcloned into pLIB plasmid; His tag (with TEV cleavage site) (N, cleaved yes); made in house; host or cells: Sf9 insect cells, baculovirus (Bac-to-Bac)
Method: (§1) Human IRE1α kinase and RNase domain (residues 547–977) was subcloned into pLIB plasmid with a His tag and TEV cleavage site, and expressed using Bac-to-Bac expression system. The primers used are listed in Supplementary Table S3. The protein purification was performed following established procedures. Briefly, Sf9 cells were infected with baculovirus and incubated at 27 °C 110 rpm for 72 h. The cells were collected by centrifugation at 4000 × g for 15 min and the cell pellet was resuspended in lysis buffer (50 mM HEPES pH 7.5, 300 mM NaCl, 10% glycerol, 1 mM MgCl2, 1 mM TCEP, 5 mM imidazole), then supplemented with 1:10,000 benzonase (Sigma, E1014), 1 tablet/25 mL […]™ Protease Inhibitor Cocktail tablets (Sigma, S8830) and 1 mM PMSF before lysed by sonication at 4 °C. […] The protein elution was incubated with TEV protease to remove His tag at 4 °C overnight. Then the sample was diluted 1:6 in buffer (50 mM HEPES pH 7.5, 1 mM TCEP, 5% glycerol) and loaded onto a 5 mL pre-packaged Q HP anion exchange column (Cytiva, HiTrap Q HP) pre-equilibrated with QA buffer (50 mM HEPES pH 7.5, 50 mM NaCl, 1 mM TCEP, 5% glycerol). The unphosphorylated and phosphorylated protein was separated by eluting the protein with a very shallow gradient with 0-30% buffer QB (50 mM HEPES pH 7.5, 1 M NaCl, 1 mM TCEP, 5% glycerol) over 80 CV. Different peaks were collected separately and verified by LC-MS. The fully phosphorylated fraction was collected and further purified by size exclusion chromatography (Cytiva, HiLoad 16/600 Superdex 200 pg,) with SEC buffer (25 mM HEPES pH 7.5, 250 mM NaCl, 1 mM TCEP, 10% glycerol) and fractioned as monomeric peak. The rest protein fraction from the Q HP anion exchange column was incubated with Lambda protein phosphatase (New England BioLabs, P0753S) overnight at 4 °C, the dephosphorylation was confirmed by LC-MS. The unphosphorylated protein was further purified by size exclusion chromatography with the SEC buffer described above. The purified phosphorylated (p-IRE1α) and dephosphorylated (IRE1α) protein aliquots were stored at −80 °C for future usage.
The dual-labeled RNA substrate with a FAM at 5’ and the BHQ-1 at 3’ containing the XBP1 sequence (5′FAM-[…]-3′BHQ1) was purchased from Integrated DNA Technologies (IDT). The FRET-based IRE1α RNase activity assay was carried out in reaction buffer containing 20 mM HEPES pH 7.5, 50 mM KOAc, 1 mM MgOAc2, 1 mM DTT, 0.05% v/v TritonX-100, at a total reaction volume of 20 μL in a 384-well black plate (4514, Corning). For unphosphorylated IRE1α (IRE1α), a final concentration of 40 nM IRE1α protein and 100 nM RNA substrate was used. For phosphorylated IRE1 (p-IRE1α), a final concentration of 4 nM p-IRE1α protein and 200 nM RNA substrate was used. The indicated compound and IRE1α protein were incubated for 30 min at room temperature before the substrate was added to the reaction. The plate was then kinetically read over one hour at room temperature using a TECAN Spark plate reader. The measurement was carried out using the fluorescence top reading mode at the excitation wavelength of 485 nm and the emission wavelength of 535 nm with a 10 nm excitation and emission bandwidth. The linear part of the reaction curve was adopted and fitted with sample linear regression to obtain the slope, and the slope was adopted to reflect the reaction rate. The inhibition % was calculated by using the equation: inhibition% = 100 × (slope of DMSO control – slope of the sample)/(slope of DMSO control – slope of blank control), DMSO control: DMSO with protein and RNA substrate; Blank control: DMSO with RNA substrate. The IC50 values were calculated using the concentration-response model in GraphPad Prism 9. […]

[2] = biological target: T2, phosphorylated IRE1α (p-IRE1α) (Homo sapiens, UniProt O75460); experiment: FRET-based IRE1α RNase activity assay, phosphorylated IRE1α; assay type: biochemical; settings: FRET assay
T2 construct: Human IRE1α kinase and RNase domain (residues 547–977) was subcloned into pLIB plasmid; His tag (with TEV cleavage site) (N, cleaved yes); made in house; host or cells: Sf9 insect cells, baculovirus (Bac-to-Bac)
Method: as §1
The dual-labeled RNA substrate with a FAM at 5’ and the BHQ-1 at 3’ containing the XBP1 sequence (5′FAM-[…]-3′BHQ1) was purchased from Integrated DNA Technologies (IDT). The FRET-based IRE1α RNase activity assay was carried out in reaction buffer containing 20 mM HEPES pH 7.5, 50 mM KOAc, 1 mM MgOAc2, 1 mM DTT, 0.05% v/v TritonX-100, at a total reaction volume of 20 μL in a 384-well black plate (4514, Corning). For unphosphorylated IRE1α (IRE1α), a final concentration of 40 nM IRE1α protein and 100 nM RNA substrate was used. For phosphorylated IRE1 (p-IRE1α), a final concentration of 4 nM p-IRE1α protein and 200 nM RNA substrate was used. The indicated compound and IRE1α protein were incubated for 30 min at room temperature before the substrate was added to the reaction. The plate was then kinetically read over one hour at room temperature using a TECAN Spark plate reader. The measurement was carried out using the fluorescence top reading mode at the excitation wavelength of 485 nm and the emission wavelength of 535 nm with a 10 nm excitation and emission bandwidth. The linear part of the reaction curve was adopted and fitted with sample linear regression to obtain the slope, and the slope was adopted to reflect the reaction rate. The inhibition % was calculated by using the equation: inhibition% = 100 × (slope of DMSO control – slope of the sample)/(slope of DMSO control – slope of blank control), DMSO control: DMSO with protein and RNA substrate; Blank control: DMSO with RNA substrate. The IC50 values were calculated using the concentration-response model in GraphPad Prism 9.

[3] = RNase activity, mean (± SEM), read-out: IRE1α IC50
[4] = RNase activity, mean (± SEM), read-out: p-IRE1α IC50
[5] = source data, unit from Fig. 3 / sheet Fig. 2b, read-out: IRE1a IC50, individual replicates (n1-n4)
[6] = source data, unit from Fig. 3, read-out: p-IRE1a IC50, individual replicates (n1-n4)

T2 sequence (O75460 547-977): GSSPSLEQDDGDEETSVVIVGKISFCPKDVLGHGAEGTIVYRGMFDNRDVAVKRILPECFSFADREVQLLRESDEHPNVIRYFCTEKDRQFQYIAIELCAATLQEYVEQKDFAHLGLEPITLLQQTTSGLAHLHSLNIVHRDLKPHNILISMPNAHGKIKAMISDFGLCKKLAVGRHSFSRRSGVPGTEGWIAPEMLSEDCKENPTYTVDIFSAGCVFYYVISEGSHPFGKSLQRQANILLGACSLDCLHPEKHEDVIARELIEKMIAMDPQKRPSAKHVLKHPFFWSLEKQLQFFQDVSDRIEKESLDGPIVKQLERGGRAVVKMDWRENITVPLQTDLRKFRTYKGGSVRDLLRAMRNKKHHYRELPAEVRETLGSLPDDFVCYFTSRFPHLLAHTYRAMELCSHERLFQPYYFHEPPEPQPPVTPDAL
T1 sequence (O75460 547-977): as above

| SMILES | IC50 [1, 3] [µM] | IC50 [2, 4] | IC50 [1, 5] | IC50 [2, 6] | reduction in IRE1α inhibition relative to IA64 ([1]; FRET IC50) |
| --- | --- | --- | --- | --- | --- |
| Cc1c(CCC(=O)O)c2cc(-c3ccoc3)ccc2n1C(=O)c1ccccc1 [IA138] | 1.27 | 2.03 µM |  |  |  |
| Cc1c(CCC(=O)O)c2cc(-c3cccs3)ccc2n1C(=O)c1ccccc1 [IA140] | 2.97 | 7.56 µM | 2.31 µM and 3.81 µM and 2.78 µM | 1.97 µM and 10.1 µM and 10.6 µM |  |
| Cc1noc(C)c1-c1ccc2c(c1)c(CCC(=O)O)c(C)n2C(=O)c1ccccc1 [IA142] | 1.61 | 4.68 µM | 2.69 µM and 1.1 µM and 1.04 µM | 4.81 µM and 5.54 µM and 3.68 µM |  |
| COc1ncc(-c2ccc3c(c2)c(CCC(=O)O)c(C)n3C(=O)c2ccccc2)c(OC)n1 [IA143] | 14.1 | 39.4 µM | 19.6 µM and 14 µM and 8.76 µM | 40.5 µM and 47.1 µM and 30.6 µM |  |
| Cc1c(CCC(=O)O)c2cc(-c3ccc(C(F)(F)F)cc3)ccc2n1C(=O)c1ccccc1 [IA145] | 13.4 | 43.2 µM | 14.1 µM and 14.2 µM and 11.9 µM | 40.7 µM and 46.9 µM and 42.1 µM |  |
| Cc1c(CCC(=O)O)c2cc(-c3cccc(N)c3)ccc2n1C(=O)c1ccccc1 [IA146] | 1.21 ± 0.82 | 6.65 µM | 2.15 µM and 0.81 µM and 0.672 µM | 7.28 µM and 8.07 µM and 4.59 µM |  |
| Cc1c(CCC(=O)O)c2cc(OC(F)(F)F)ccc2n1C(=O)c1ccccc1 [IA148] | 0.57 ± 0.36 | 0.94 µM | 0.524 µM and 0.238 µM and 0.957 µM | 0.986 µM and 0.798 µM and 1.02 µM | ~ 19 fold |
| Cc1c(CCC(=O)O)c2cc(-c3cccc(C(=O)O)c3)ccc2n1C(=O)c1ccccc1 [IA149] | 1.01 ± 0.27 | 8.81 µM and 8.82 µM | 0.895 µM and 0.824 µM and 1.32 µM | 6.8 µM and 11.6 µM and 8.05 µM |  |
| Cc1c(CCC(=O)O)c2cc(-c3ccc(C(N)=O)cc3)ccc2n1C(=O)c1ccccc1 [IA152] | 12.1 | 43.1 µM | 10.8 µM and 12.5 µM and 13 µM | 46.9 µM and 49.8 µM and 32.5 µM |  |
